Measurements reported in publication PMC3066644 (Journal of Lipids, 2010).

Columns and labels:
acid ceramidase (aCDase) [1] = biological target: T1, acid ceramidase (aCDase) (Homo sapiens, UniProt Q13510); test: micellar aCDase assay at […] inhibitor, recombinant human enzyme; format: biochemical
T1 construct: gene ASAH1
T1 sequence (Q13510 22-142): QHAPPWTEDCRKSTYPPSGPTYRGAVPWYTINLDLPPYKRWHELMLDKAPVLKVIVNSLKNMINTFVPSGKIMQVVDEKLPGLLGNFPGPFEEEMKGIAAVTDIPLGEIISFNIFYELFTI
T1 sequence (Q13510 143-395): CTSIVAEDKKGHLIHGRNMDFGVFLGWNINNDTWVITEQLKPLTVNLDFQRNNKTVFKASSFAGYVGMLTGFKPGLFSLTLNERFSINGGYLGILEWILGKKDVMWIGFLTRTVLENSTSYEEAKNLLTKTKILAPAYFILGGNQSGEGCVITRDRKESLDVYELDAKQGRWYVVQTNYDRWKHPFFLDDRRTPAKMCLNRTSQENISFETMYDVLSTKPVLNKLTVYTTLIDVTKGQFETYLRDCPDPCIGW

acid ceramidase (aCDase) [2] = biological target: T1, acid ceramidase (aCDase); test: micellar aCDase assay with recombinant human enzyme, HPLC fluorescence detection of sphingosine; format: biochemical

| SMILES | micellar aCDase assay at 2.5 μM inhibitor, recombinant human enzyme (acid ceramidase (aCDase) [1]) | IC50 (acid ceramidase (aCDase) [2]) [nM] |
| --- | --- | --- |
| CCCCCCCCCCCCCC(=O)NCC(O)c1cccnc1 (racemic) [DP24c, N-(2-Hydroxy-2-(Pyridin-3-yl)-Ethyl)Tetradecanamide] | Although DP24c provides a basic moiety, it showed at least the same inhibition as DP24a or DP24b | – |
| CCCCCCCCCCCCCCNC(=O)NCC(O)c1cccnc1 (racemic) [DP25c, 1-(2-Hydroxy-2-(Pyridin-3-yl)Ethyl)-3-Tetradecylurea] | Evaluation in the aCDase assay revealed only a slightly better inhibition | – |
| CCCCCCCCCCCCCC(=O)NCC(O)c1ccccc1 (racemic) [DP24a, N-(2-Hydroxy-2-Phenylethyl)-Tetradecanamide] | – | 1290 |
| CCCCCCCCCCCCCCNC(=O)NCC(O)c1ccccc1 (racemic) [DP25a, 1-(2-Hydroxy-2-Phenylethyl)-3-Tetradecylurea] | Evaluation in the aCDase assay revealed only a slightly better inhibition | – |
